Like-named read-outs stand apart in the source and are kept apart here.
What was measured:
[1] = system: lupin
Experimental: The compounds and mixtures of Examples 1 and 2 were tested for their activity for root penetration inhibition as specified in DIN 4062 (lupin test): […]

[2] = system: undesired plants; conditions: crop protection; cited from earlier work

In the case of `Cc1cc(Cl)ccc1OC(C)C(=O)OCCOCCOCCOCCOC(=O)C(C)Oc1ccc(Cl)cc1C` (racemic) [Example 2, diester of tetraethylene glycol with rac-2-(4-chloro-2-methylphenoxy)propionic acid], the “Root penetration into (number)” value ([1]; Concentration 0.1%) is reported as “approx. 40 number”, the “Root penetration through (number)” value ([1]; Concentration 0.1%) is reported as 1 number and the “Root penetration into (number)” value ([1]; Concentration 0.2%) is reported as “approx. 40 number”. The “Root penetration through (number)” value ([1]; Concentration 0.2%) was 0 number, the “Root penetration into (number)” value ([1]; Concentration 0.5%) was “approx. 10 number” and the “Root penetration through (number)” value ([1]; Concentration 0.5%) was 0 number. The “Root penetration into (number)” value ([1]; Concentration 1.0%) was 0 number and the “Root penetration through (number)” value ([1]; Concentration 1.0%) was 0 number.
In the case of `Cc1cc(Cl)ccc1O[C@H](C)C(=O)OCCOCCOCCOCCOC(=O)[C@@H](C)Oc1ccc(Cl)cc1C` [Example 1, diester of tetraethylene glycol with R-(+)-2-(4-chloro-2-methylphenoxy)propionic acid], the “Root penetration into (number)” value ([1]; Concentration 0.1%) is reported as “approx. 40 number”, the “Root penetration through (number)” value ([1]; Concentration 0.1%) is reported as 0 number and the “Root penetration into (number)” value ([1]; Concentration 0.2%) is reported as “approx. 15 number”. The “Root penetration through (number)” value ([1]; Concentration 0.2%) was 0 number, the “Root penetration into (number)” value ([1]; Concentration 0.5%) was 1 number and the “Root penetration through (number)” value ([1]; Concentration 0.5%) was 0 number.
In the case of `Cc1cc(Cl)ccc1O[C@@H](C)C(=O)OCCOCCOCCOCCOC(=O)[C@H](C)Oc1ccc(Cl)cc1C` [Example 4, diester of tetraethylene glycol with S-(−)-2-(4-chloro-2-methylphenoxy)propionic acid], the “Root penetration into (number)” value ([1]; Concentration 0.1%) is reported as greater than 50 number, the “Root penetration through (number)” value ([1]; Concentration 0.1%) is reported as greater than 50 number and the “Root penetration into (number)” value ([1]; Concentration 0.2%) is reported as greater than 50 number. The “Root penetration through (number)” value ([1]; Concentration 0.2%) was greater than 50 number, the “Root penetration into (number)” value ([1]; Concentration 0.5%) was greater than 50 number and the “Root penetration through (number)” value ([1]; Concentration 0.5%) was greater than 50 number. For the same compound, the “Root penetration into (number)” value ([1]; Concentration 1.0%) was “approx. 40 number” and the “Root penetration through (number)” value ([1]; Concentration 1.0%) was “approx. 40 number”.
In the case of `Cc1cc(Cl)ccc1O[C@H](C)C(=O)O` [R-(+) isomer, R-(+)-2-(4-chloro-2-methylphenoxy)propionic acid], the “herbicidal effectiveness compared with the S-(−) isomer or the racemic mixture” value [2] is given as “markedly more effective”.

From patent US20070037709A1, “Polyethylene glycol esters of r-(+)-mcpp acid” (priority 2003, published 2007)
